The values that follow come from ChEMBL document CHEMBL1136870, “Synthesis of aristolactam analogues and evaluation of their antitumor activity” (2009).

Common to all, as to assay type: functional
Test [1] in a line: Antiproliferative activity against human MESSA cells by SRB assay. Conditions: MES-SA. On the technique in general: The SRB assay estimates cell density from bound dye.
Test [2] in a line: Antiproliferative activity against multidrug resistant human MES-SA/Dx5 cells by SRB assay.
In test [3] the test system is HCT-15. Briefly: Antiproliferative activity against human HCT15 cells by SRB assay.
Test [4] can be described thus: Antiproliferative activity against multidrug resistant human HCT15/CLO2 cells by SRB assay. To be noted: HCT-15.
Test [5] relates to SK-OV-3. Briefly: Antiproliferative activity against human SKOV3 cells by SRB assay.
The subject of test [6] is A-431. Briefly: Antiproliferative activity against human A431 cells by SRB assay.
The subject of test [7] is A549. Briefly: Antiproliferative activity against human A549 cells by SRB assay.
In test [8] the test system is MDA-MB-231. Briefly: Antiproliferative activity against human MDA-MB-231 cells by SRB assay.
Test [9] deals with BT-474. Briefly: Antiproliferative activity against human BT474 cells by SRB assay.

Where only a bound is given, the exact number is not on record here.

Usually GI50 stands for the concentration at which growth is held to half of that of the control. Read a low GI50 as more potent growth inhibition. On to `CN1C(=O)c2cccc3c2c1cc1ccccc13`, for which the GI50 in [1] was found to be 1810 nM; in test [2], 3560 nM; in [3], 4210 nM; in test [4] it was 5720 nM; in test [5], 4.26 µM; in test [6], 8.02 µM. Besides, in test [7], the GI50 is 1540 nM.
As to `COc1cc2c3c(cc4cc(Cl)ccc4c3c1OC)N(CCN1CCCCC1)C2=O`, the GI50 came out at 590 nM in test [1]; 610 nM in test [2]; 920 nM in [3]; 830 nM in [4]; 0.91 µM in [5]; 0.18 µM in test [6]. For the same compound, in test [7], the GI50 worked out at 260 nM.
For the compound `COc1cc2c3c(cc4ccccc4c3c1OC)N(CCc1ccccc1)C2=O`, the GI50 in test [5] is 13.4 µM; in test [6] it was 23.7 µM; in test [8] it was over 30 µM; in test [9] it was 12.8 µM.
For `COc1cc2c3c(cc4ccccc4c3c1OC)N(C(C)C)C2=O` the same measures were 19.4 µM, over 30 µM, over 30 µM and 20.6 µM.
`CCN1C(=O)c2cc(OC)c(OC)c3c2c1cc1ccccc13`: the GI50 in test [5] stood at 5.45 µM; in test [6] it was 10.9 µM; in test [8], 9.37 µM; in test [9] it was 4.16 µM.
As to `COc1cc2c3c(c(C)c4ccccc4c3c1OC)N(C)C2=O`, the GI50 in test [5] and in test [6] was over 30 µM throughout.
Turning to `COc1ccc2c(c1)cc1c3c(cc(OC)c(OC)c32)C(=O)N1C`, the GI50 was 1220 nM in [1], 760 nM in test [2], 300 nM in test [3] and 160 nM in test [4].
As to `COc1cc([C@@H]2c3cc4c(cc3[C@@H](O[C@@H]3O[C@@H]5CO[C@@H](C)O[C@H]5[C@H](O)[C@H]3O)[C@H]3COC(=O)[C@H]23)OCO4)cc(OC)c1O` [ETOPOSIDE], the GI50 in test [1] was determined as 210 nM; in [2] it was 9720 nM; in [3], 1250 nM; in [4], 10000 nM.
Turning to `COc1cccc2c1C(=O)c1c(O)c3c(c(O)c1C2=O)C[C@@](O)(C(=O)CO)C[C@@H]3O[C@H]1C[C@H](N)[C@H](O)[C@H](C)O1` [DOXORUBICIN], the GI50 in test [1] was 5.1 nM; in test [2] it was 930 nM; in [3] it was 190 nM; in [4], 7920 nM; in [5] it was 0.021 µM; in [6] it was 0.0012 µM. The compound further came in with a GI50 in test [7] of 3 nM.
Regarding `COc1cc2c3c(cc4c5c(ccc4c3c1OC)OCO5)N(CCN1CCCCC1)C2=O`, the GI50 was under 100 nM in test [1]; under 100 nM in test [2]; 100 nM in test [3]; 140 nM in test [4]; under 0.1 µM in [5]; under 0.1 µM in test [6]. In addition, in [7], the GI50 is under 100 nM.
As for `COc1cc2c3c(cc4ccccc4c3c1OC)NC2=O` [CEPHARANONE B], the GI50 in test [1], in test [2], in [3] and in test [4] was over 30000 nM throughout.
For the compound `COc1c(O)cc2c3c(cc4ccccc4c13)N(C)C2=O` [SAURISTOLACTAM], the GI50 came out at 23800 nM in test [1], 23100 nM in test [2], 4100 nM in [3] and 4380 nM in test [4].
For the compound `COc1cc2c3c(cc4ccccc4c3c1OC)N(c1ccc(C(C)(C)C)cc1)C2=O`, the 50% growth inhibitory concentration (GI50) in [5] was determined as 6.04 µM; in [6], 3.51 µM; in [8], 18.2 µM; in test [9], 11.1 µM.
In the case of `COc1cc2c3c(cc4ccccc4c3c1OC)N(CCN1CCCCC1)C2=O`, the GI50 in [1] is 1460 nM; in test [2], 1510 nM; in test [3], 1730 nM; in [4] it was 1580 nM; in test [5], 0.95 µM; in test [6], 1.29 µM. Moreover, the GI50 in test [7] amounted to 950 nM.
Consider `Cc1c2c3c(cccc3c3ccccc13)C(=O)N2C`, for which the GI50 amounted to 3790 nM in test [3], 13.1 µM in test [5], 2.83 µM in [6] and 1620 nM in test [7].
For the compound `COc1cc2cc3c4c(cc(OC)c(OC)c4c2cc1OC)C(=O)N3CCN(C)C`, the GI50 was found to be 390 nM in [1]; 510 nM in test [2]; 720 nM in test [3]; 570 nM in test [4]; 0.33 µM in test [5]; 0.15 µM in test [6]. For the same compound, the GI50 in test [7] came to 190 nM.
For the compound `COCCN1C(=O)c2cc(OC)c(OC)c3c2c1cc1ccccc13`, the 50% growth inhibitory concentration (GI50) is 24.3 µM in [5], over 30 µM in test [6], over 30 µM in test [8] and 22.5 µM in test [9].
Turning to `COc1cc2c3c(cc4ccccc4c3c1O)NC2=O` [PIPEROLACTAM A], the GI50 in [1] is over 30000 nM; in test [2] it was 27000 nM; in test [3], over 30000 nM; in [4], over 30000 nM.
With `COc1cc2c3c(cc4c5c(ccc4c3c1OC)OCO5)N(CCN(C)C)C2=O`, the GI50 in [1] was under 0.1 nM; in test [2] it was under 0.1 nM; in [3], under 0.1 nM; in test [4], 9.5 nM; in test [5], under 0.1 µM; in [6], under 0.0001 µM. The same compound came in with a GI50 in test [7] of under 100 nM.
Turning to `COc1cc2cc3c4c(cc(OC)c(OC)c4c2cc1OC)C(=O)N3C`, the GI50 in test [1] was 1050 nM; in [2], 1010 nM; in test [3] it was 60 nM; in test [4], 70 nM.
Regarding `COc1cc2c3c(cc4ccccc4c3c1OC)N(Cc1cccs1)C2=O`, the GI50 in [5] was 23.8 µM; in [6], over 30 µM; in test [8], over 30 µM; in [9] it was over 30 µM.
For the compound `COc1cc2c3c(cc4ccccc4c3c1OC)N(CCN1CCOCC1)C2=O`, the GI50 in test [5] turned out to be 5.49 µM; in test [6], 4.64 µM.
For `COc1cc2c3c(c(C)c4ccccc4c3c1OC)N(CCN1CCCCC1)C2=O`, the GI50 in test [3] is 270 nM; in test [5] it was 0.33 µM; in test [6], 0.18 µM; in test [7], 180 nM.
Take `COc1ccc(N2C(=O)c3cc(OC)c(OC)c4c3c2cc2ccccc24)cc1`: the GI50 in test [5] is 16.2 µM; in test [6], 32.5 µM; in test [8] it was over 30 µM; in [9] it was 23.7 µM.
On to `COc1cc2c3c(cc4ccc(C)cc4c3c1OC)N(C)C2=O`, for which the GI50 was over 30000 nM in [1], over 30000 nM in [2], 1530 nM in test [3] and 1460 nM in [4].
With `COc1cc2c3c(cc4ccccc4c3c1OC)N(C)C2=O`, the GI50 stood at 3840 nM in test [1]; 9520 nM in [2]; 8470 nM in test [3]; 8610 nM in [4]; 3.42 µM in test [5]; 5.75 µM in test [6].
As for `COc1ccc2cc3c4c(cc(OC)c(OC)c4c2c1)C(=O)N3` [ARISTOLACTAM BIII], the GI50 in test [1] was found to be 2700 nM; in test [2] it was 2820 nM; in [3], 3740 nM; in [4], 3350 nM.
As for `COc1ccc2cc3c4c(cc(OC)c(OC)c4c2c1)C(=O)N3CCN1CCCCC1`, the GI50 in [3] is 5910 nM; in [5], 6.72 µM; in test [6] it was 2.95 µM; in test [7], 4100 nM.
Take `COc1cc2c3c(cc4ccccc4c3c1O)N(C)C2=O` [N-METHYL PIPEROLACTAM A]: the GI50 in [1] amounted to 14500 nM; in [2], 14500 nM; in test [3], 12800 nM; in test [4] it was 10800 nM.
For the compound `COc1cc2c3c(cc4ccccc4c3c1OC)N(CC1CC1)C2=O`, the GI50 is 24.2 µM in test [5], 27.1 µM in [6], over 30 µM in test [8] and 23 µM in test [9].
As for `COc1cc2c3c(cc4cc5c(cc4c3c1OC)OCO5)N(C)C2=O`, the GI50 turned out to be 27100 nM in test [1], 18900 nM in test [2], 5930 nM in test [3] and 1640 nM in [4].
As for `C#CCN1C(=O)c2cc(OC)c(OC)c3c2c1cc1ccccc13`, the GI50 in test [5], in [6], in test [8] and in test [9] was over 30 µM each time.
For `COc1cc2c3c(cc4cc(Cl)ccc4c3c1OC)N(C)C2=O`, the GI50 in [1] is over 30000 nM; in test [2], over 30000 nM; in test [3], 2940 nM; in test [4] it was 17900 nM.
For the compound `COc1cc2c3c(cc4ccccc4c3c1OC)N(Cc1ccncc1)C2=O`, the figures for the GI50 in test [5] and in [6] were 9.94 µM and over 30 µM, respectively.
In the case of `COc1cc2cc3c4c(cc(OC)c(OC)c4c2cc1OC)C(=O)N3CCN1CCCCC1`, the GI50 in test [3] is 4220 nM; in [5] it was 1.71 µM; in [6], 1.19 µM; in test [7], 1540 nM.
Consider `CC(=O)O[C@H]1C(=O)[C@@]2(C)[C@H]([C@H](OC(=O)c3ccccc3)[C@]3(O)C[C@H](OC(=O)[C@H](O)[C@@H](NC(=O)c4ccccc4)c4ccccc4)C(C)=C1C3(C)C)[C@]1(OC(C)=O)CO[C@@H]1C[C@@H]2O` [PACLITAXEL], for which the GI50 in [1] is under 0.01 nM; in test [2] it was 160 nM; in test [3], 11 nM; in test [4], 830 nM; in test [6], under 1e-05 µM.
